Results reported in publication PMC6219668 (Oncotarget, 2018).
pEC50: −log10 of the molar value.

Tested on: panel of nearly 500 cancer cell lines
Test: Cancer Cell Line Encyclopedia profiling, 3-day CellTiter-Glo
Type: cell-based
Set-up: Amax: unit not given here

CC(=O)c1c(C)c2cnc(Nc3ccc(N4CCNCC4)cn3)nc2n(C2CCCC2)c1=O [Palbociclib, reference compound]
5.91: pEC50 (Homo sapiens, 22Rv1)
5.64: pEC50 (Homo sapiens, FaDu)
5.56: pEC50 (Homo sapiens, HEC-1B)
5.44: pEC50 (Homo sapiens, Hs 683)
5.77: pEC50 (Homo sapiens, COLO 205)
6.09: pEC50 (Homo sapiens, HepG2) | pEC50 (Homo sapiens, L-363)
6.02: pEC50 (HEY A8) | pEC50 (Homo sapiens, DMS-114)
5.93: pEC50 (Homo sapiens, OCI-AML2)
6.21: pEC50 (Homo sapiens, OVSAHO)
6.62: pEC50 (Homo sapiens, EBC-1) | pEC50 (Homo sapiens, NCI-H2087)
5.57: pEC50 (Homo sapiens, A-375)
6.64: pEC50 (Homo sapiens, Hs746T)
6.75: pEC50 (Homo sapiens, NUGC-3)
5.99: pEC50 (Homo sapiens, NCI-H1573)
6.12: pEC50 (Homo sapiens, HEC-1-A)
6.25: pEC50 (Homo sapiens, EFM-19) | pEC50 (Homo sapiens, HT-29)
5.83: pEC50 (Homo sapiens, LN-229) | pEC50 (Homo sapiens, NCI-H358)
5.71: pEC50 (Homo sapiens, Detroit 562)
6.10: pEC50 (Homo sapiens, MES-SA)
6.06: pEC50 (Homo sapiens, NCI-H211) | pEC50 (Homo sapiens, NCI-H1793)
5.60: pEC50 (Homo sapiens, NCI-H1651)
6.16: pEC50 (Homo sapiens, HPAC) | pEC50 (Homo sapiens, IMR-32)
5.23: pEC50 (Homo sapiens, AN3-CA)
6.00: pEC50 (Homo sapiens, AU565) | pEC50 (Homo sapiens, COLO 201) | pEC50 (Homo sapiens, Lu-99)
5.82: pEC50 (Homo sapiens, NCI-H1792)
5.72: pEC50 (Homo sapiens, A2780) | pEC50 (Homo sapiens, HuP-T3)
6.19: pEC50 (Homo sapiens, G-401)
5.68: pEC50 (Homo sapiens, BT-474)
5.87: pEC50 (Homo sapiens, NCI-H441) | pEC50 (Homo sapiens, ONS-76)
5.94: pEC50 (Homo sapiens, A549)
6.15: pEC50 (Homo sapiens, Malme-3M) | pEC50 (Homo sapiens, NCI-H520) | pEC50 (Homo sapiens, NUGC-4)
5.40: pEC50 (Homo sapiens, NCI-H747)
< 5.10: pEC50 (COV318) | pEC50 (COV504) | pEC50 (HCC15) | pEC50 (HEC-251) | pEC50 (Homo sapiens, 639-V) | pEC50 (Homo sapiens, 769-P) | pEC50 (Homo sapiens, 8505C) | pEC50 (Homo sapiens, A 172) | pEC50 (Homo sapiens, A253) | pEC50 (Homo sapiens, A673) | pEC50 (Homo sapiens, A2058) | pEC50 (Homo sapiens, AMO1) | pEC50 (Homo sapiens, ASPC1) | pEC50 (Homo sapiens, AZ-521) | pEC50 (Homo sapiens, BFTC-909) | pEC50 (Homo sapiens, BGC-823) | pEC50 (Homo sapiens, BL-41) | pEC50 (Homo sapiens, BT-20) | pEC50 (Homo sapiens, BT-549) | pEC50 (Homo sapiens, CAKI-2) | pEC50 (Homo sapiens, CAL-27) | pEC50 (Homo sapiens, CAL-85-1) | pEC50 (Homo sapiens, CAMA-1) | pEC50 (Homo sapiens, CHL-1) | pEC50 (Homo sapiens, COLO 320) | pEC50 (Homo sapiens, COLO-679) | pEC50 (Homo sapiens, COR-L23) | pEC50 (Homo sapiens, Calu-1) | pEC50 (Homo sapiens, Calu-3) | pEC50 (Homo sapiens, Capan-2) | pEC50 (Homo sapiens, DBTRG-05MG) | pEC50 (Homo sapiens, DOV13) | pEC50 (Homo sapiens, DU-145) | pEC50 (Homo sapiens, Daoy) | pEC50 (Homo sapiens, EFE-184) | pEC50 (Homo sapiens, EFO-21) | pEC50 (Homo sapiens, EFO-27) | pEC50 (Homo sapiens, G-361) | pEC50 (Homo sapiens, GCIY) | pEC50 (Homo sapiens, HCC70) | pEC50 (Homo sapiens, HCC78) | pEC50 (Homo sapiens, HCC1187) | pEC50 (Homo sapiens, HCC1569) | pEC50 (Homo sapiens, HCC1806) | pEC50 (Homo sapiens, HCC2935) | pEC50 (Homo sapiens, HCT-15) | pEC50 (Homo sapiens, HCT-116) | pEC50 (Homo sapiens, HEL 92.1.7) | pEC50 (Homo sapiens, HMCB) | pEC50 (Homo sapiens, HSC-2) | pEC50 (Homo sapiens, HT1197) | pEC50 (Homo sapiens, HT-144) | pEC50 (Homo sapiens, HT-1080) | pEC50 (Homo sapiens, HT-1376) | pEC50 (Homo sapiens, Hs 294T) | pEC50 (Homo sapiens, Hs 695T) | pEC50 (Homo sapiens, Hs-578T) | pEC50 (Homo sapiens, HuCCT-1) | pEC50 (Homo sapiens, HuP-T4) | pEC50 (Homo sapiens, HuT78) | pEC50 (Homo sapiens, IGR-37) | pEC50 (Homo sapiens, IGROV-1) | pEC50 (Homo sapiens, IPC-298) | pEC50 (Homo sapiens, KALS-1) | pEC50 (Homo sapiens, KARPAS-299) | pEC50 (Homo sapiens, KARPAS-422) | pEC50 (Homo sapiens, KMS-12-BM) | pEC50 (Homo sapiens, KNS-42) | pEC50 (Homo sapiens, KU812) | pEC50 (Homo sapiens, KYSE-30) | pEC50 (Homo sapiens, KYSE-410) | pEC50 (Homo sapiens, KYSE-520) | pEC50 (Homo sapiens, LCLC-103H) | pEC50 (Homo sapiens, LN-18) | pEC50 (Homo sapiens, LOX IMVI) | pEC50 (Homo sapiens, LS-123) | pEC50 (Homo sapiens, LS-513) | pEC50 (Homo sapiens, M059J) | pEC50 (Homo sapiens, MC116) | pEC50 (Homo sapiens, MCF7) | pEC50 (Homo sapiens, MDA-MB-157) | pEC50 (Homo sapiens, MDA-MB-175-VII) | pEC50 (Homo sapiens, MDA-MB-436) | pEC50 (Homo sapiens, MDA-MB-468) | pEC50 (Homo sapiens, MEG-01) | pEC50 (Homo sapiens, MFE-280) | pEC50 (Homo sapiens, MIA PaCa-2) | pEC50 (Homo sapiens, MKN-7) | pEC50 (Homo sapiens, MKN-45) | pEC50 (Homo sapiens, MKN-74) | pEC50 (Homo sapiens, MSTO-211H) | pEC50 (Homo sapiens, NCI-H23) | pEC50 (Homo sapiens, NCI-H226) | pEC50 (Homo sapiens, NCI-H522) | pEC50 (Homo sapiens, NCI-H647) | pEC50 (Homo sapiens, NCI-H650) | pEC50 (Homo sapiens, NCI-H661) | pEC50 (Homo sapiens, NCI-H727) | pEC50 (Homo sapiens, NCI-H810) | pEC50 (Homo sapiens, NCI-H1048) | pEC50 (Homo sapiens, NCI-H1092) | pEC50 (Homo sapiens, NCI-H1373) | pEC50 (Homo sapiens, NCI-H1563) | pEC50 (Homo sapiens, NCI-H1581) | pEC50 (Homo sapiens, NCI-H1648) | pEC50 (Homo sapiens, NCI-H1666) | pEC50 (Homo sapiens, NCI-H1693) | pEC50 (Homo sapiens, NCI-H1694) | pEC50 (Homo sapiens, NCI-H1975) | pEC50 (Homo sapiens, NCI-H2009) | pEC50 (Homo sapiens, NCI-H2030) | pEC50 (Homo sapiens, NCI-H2228) | pEC50 (Homo sapiens, NCI-H2444) | pEC50 (Homo sapiens, NCI-H2452) | pEC50 (Homo sapiens, NCI-H3255) | pEC50 (Homo sapiens, NCI-N87) | pEC50 (Homo sapiens, OC-314) | pEC50 (Homo sapiens, OV-90) | pEC50 (Homo sapiens, OVCAR-3) | pEC50 (Homo sapiens, OVCAR-4) | pEC50 (Homo sapiens, OVCAR-8)
5.76: pEC50 (Homo sapiens, C2BBe1)
-51.0145: Amax (8305c (thyroid))
5.86: pEC50 (Homo sapiens, HuH-1)
6.22: pEC50 (Homo sapiens, HCC1954)
6.24: pEC50 (Homo sapiens, 8305C)
5.70: pEC50 (Homo sapiens, NCI-H28) | pEC50 (Homo sapiens, OE33)
6.14: pEC50 (Homo sapiens, HCC4006)
6.78: pEC50 (Homo sapiens, NCI-H2122)
5.17: pEC50 (Homo sapiens, MDA-MB-415)
5.62: pEC50 (Homo sapiens, NCI-H1650)
6.31: pEC50 (Homo sapiens, MINO)
-0.08134: Amax (8505c (thyroid))
6.28: pEC50 (Homo sapiens, NCI-H2052)
6.27: pEC50 (Homo sapiens, HGC-27) | pEC50 (Homo sapiens, MG-63)
5.98: pEC50 (Homo sapiens, NCI-H1355)
5.81: pEC50 (Homo sapiens, NCI-H2170)
8.59: pEC50 (GLC82)
6.39: pEC50 (Homo sapiens, A204)
5.55: pEC50 (Homo sapiens, GMS-10) | pEC50 (Homo sapiens, NCI-H1944)
5.47: pEC50 (Homo sapiens, MDA-MB-453)
-52.63: Amax (769p (kidney))
